Tests used:
fire ant = test: Feeding of biogenic amines to fire ants (worker and queen mortality); type: in vivo; settings: for fire ant worker mortality versus sucrose controls: biogenic amines all formulated at 1.0%
tawny crazy ant workers = test: Pest ant specificity of tyramine using tawny crazy ant workers; type: in vivo
Drosophila suzukii = test: Feeding test of D. suzukii adults with tyramine or M-tyramine sucrose solutions (fly mortality); type: in vivo; settings: 7 days; for fly mortality, first and second experiments: 1% solution in 0.5 M sucrose; for mortality: 4% compound in 0.5 M sucrose
Method: Flies and sugars: Drosophila suzukii used in these experiments were from a colony maintained at 22±5° C. under a photoperiod of L:D 16:8 h and a relative humidity of 60±5% RH at the Horticultural Crops Research Unit, USDA ARS in Corvallis, Oreg. Wildtype flies collected from infested fruits in Corvallis, Oreg., were used to start the colony. Standard rearing methods and diet are described by Woltz et al. (Journal of Applied Entomology, 139: 759-770 (2015)). Newly emerged adult males and females were collected daily and maintained in cages with water and diet until they were specific ages for experimentation.
The chemical components were tyramine (98%, Sigma-Aldrich), N-methyl-tyramine (shortened name=M-tyramine), 95%, Combi-Blocks, Inc.), and sucrose (>99%, Fisher Scientific, Hampton, N.H.).
The effect of tyramine and M-tyramine formulations on fly mortality-I: Ten 5-day old flies (5 males and 5 females) were introduced into a plastic vial and given a tube (1.5 ml) containing different water-based solutions (FIG. 1). For the first experiment various pairs were tested (FIG. 2A): (a) Sucrose 0.5 M only; (b) Tyramine 0.1%+Sucrose 0.5 M (0.1% Tyramine); (c) Tyramine 1%+Sucrose 0.5 M (1% Tyramine); (d) M-Tyramine 0.1%+Sucrose 0.5 M (0.1% M-Tyramine); and (e) M-Tyramine 1%+Sucrose 0.5 M (1% M-Tyramine).
The effect of tyramine and M-tyramine formulations on fly mortality-II: The second experiment consisted of the following (FIG. 2B): (a) Sucrose 0.5 M only; (b) Tyramine 1%+Sucrose 0.5 M (1% Tyramine); (c) Tyramine 2%+Sucrose 0.5 M (2% Tyramine); (d) M-Tyramine 1%+Sucrose 0.5 M (1% M-Tyramine), and (e) M-Tyramine 2%+Sucrose 0.5 M (2% M-Tyramine).
The effect of tyramine and M-tyramine formulations on fly mortality-III: The third experiment consisted of the following (FIG. 2C): (a) Sucrose 0.5 M only; (b) Tyramine 2%+Sucrose 0.5 M (2% Tyramine); (c) Tyramine 4%+Sucrose 0.5 M (4% Tyramine); (d) M-Tyramine 2%+Sucrose 0.5 M (2% M-Tyramine); and (e) M-Tyramine 4%+Sucrose 0.5 M (4% M-Tyramine). Survivorship of flies was checked daily for 7 days. Each pair per experiment was replicated at least eight times.

Aqueous solubility = type: physicochemical
Description: By the term “effective amount” of a compound or property as provided herein is meant such amount as is capable of performing the function of the compound or property for which an effective amount is expressed. As will be pointed out below, the exact amount required will vary from process to process, depending on recognized variables such as the compounds employed and the processing conditions observed. Thus, it is not possible to specify an exact “effective amount.” However, an appropriate effective amount may be determined by one of ordinary skill in the art using only routine experimentation. Generally the concentration of the compounds will be, but not limited to, at least about 0.1% (e.g., at least 0.1%; for example in an aqueous solution), at least about 1% (e.g., at least 1%), preferably at least about 2% (e.g., at least 2%), preferably at least about 3% (e.g., at least 3%), preferably at least about 4% (e.g., at least 4%). […] However, higher concentrations than the limits shown could be obtained using solubilizing agents (e.g., DMSO of DMF) or chelating agents; for example, at least about 5% (e.g., at least 5%), preferably at least about 6% (e.g., at least 6%), preferably at least about 7% (e.g., at least 7%), preferably at least about 8% (e.g., at least 8%), preferably at least about 9% (e.g., at least 9%), and preferably at least about 10% (e.g., at least 10%). Concentrations lower than about 2% would require longer duration of exposure, such as the composition in a bait station to which the target insects have long term access to, thus increasing the total dose.

| SMILES | fire ant worker mortality versus sucrose controls (fire ant) | fly mortality, first and second experiments (Drosophila suzukii) | mortality (Drosophila suzukii) [%] | aqueous solubility (upper limit) (Aqueous solubility; free base) | aqueous solubility (upper limit) (Aqueous solubility; salt form) | further results |
| --- | --- | --- | --- | --- | --- | --- |
| NCCc1c[nH]c2ccc(O)cc12 [serotonin] | no different than the sucrose controls |  |  |  |  |  |
| NCCc1ccc(O)cc1 [tyramine] | significant fire ant worker mortality | not statistically consistent | 100 | about 1% | about 5% | mortality of tawny crazy ant workers versus controls (tawny crazy ant workers): did not result in mortality greater than the controls; fly mortality versus 0.5 M sucrose negative control (Drosophila suzukii; 0.1% solution in 0.5 M sucrose): not significantly different; mortality in small lab colonies (fire ant; tyramine fed to small lab fire ant colonies): worker and queen fire ant mortality; fire ant worker mortality (fire ant; workers fed 1.0, 0.1, and 0.01% wt(g)/vol(L)): significant mortality |
| NCCc1c[nH]cn1 [histamine] | no different than the sucrose controls |  |  |  |  |  |
| NCC(O)c1ccc(O)cc1 (centres unmarked) [octopamine] | no different than the sucrose controls |  |  |  |  |  |
| CNCCc1ccc(O)cc1 [M-tyramine, N-methyl-tyramine] |  | not statistically consistent | 100 | ~3.4% | about 10% |  |
| NCCc1ccc(O)c(O)c1 [dopamine] | no different than the sucrose controls |  |  |  |  |  |

Reference: patent US20210337791A1, “Methods For Killing Insects Such As Drosophila species” (The United States of America, as represented by the …, priority 2020, published 2021)
